Experimental data taken from patent US20160052898A1, “NOVEL COMPOUNDS” (BAYER PHARMA AKTIENGESELLSCHAFT, priority 2013, published 2016).
Where a name gives a salt, the structure may show the parent alone.

How the values were obtained:
Type in all cases: cell-based
[1] = test system: constitutive active colorectal cancer cell (CRC) Wnt pathway; assay: HCT116 Super TopFlash cellular reporter assay (constitutive active Wnt pathway); settings: HCT116 TOP reporter cells, luciferase expression, 36 hours incubation, 50 μM to 15 nM
In short: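 HCT116 cells (β-catenin ΔS45) stably carrying Super TopFlash, with a parallel FOP-control line, were plated 24 h ahead. They were exposed 36 h at 37 °C, 5% CO2 to compound from a 50 μM–15 nM, 3.16-fold pre-dilution series in CAFTY buffer (pH 7.4, 2 mM Ca2+, 0.01% BSA). Wnt signalling was read as luciferase luminescence.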

[2] = test system: HCT116 FOP control reporter cell line; assay: HCT116 FOP control vector reporter assay (non-functional TCF elements); settings: Homo sapiens, HCT-116, 36 h, HCT116 FOP control reporter cells, luciferase expression, 36 hours incubation, 50 μM to 15 nM; read-out: HCT116 FOPFlash IC50
In short: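 Stable HCT116 line carrying the non-functional FOP luciferase construct, 10000 cells/well plated 24 hrs before. Compounds 50 μM to 15 nM (3.16-fold steps) in CAFTY buffer pH 7.4 with 2 mM Ca2+, 36 hours at 37° C; luciferase luminescence read.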

wildtype Wnt pathway = assay: HEK293 Super TopFlash cellular reporter assay, Wnt-3a stimulated (wildtype Wnt pathway); settings: Homo sapiens; HEK293 TOP reporter cells, EC50 concentration of recombinant Wnt-3a, 16 hours incubation; read-out: HEK TOP OncoFlash IC50
Description: (§1) In order to determine the inhibitory activity of compounds for the WT Wnt signaling pathway, the Super TopFlash vector respectively FOP vector were cotransfected with pcDNA3 into HEK293 and stable transfected HEK293 cells were isolated by antibiotic selection. […] The recombinant human Wnt-3a was thereby used between 2500 and 5 ng/ml in two-fold dilution steps. […] Measurement of luciferase expression was done as described for the constitutive active Wnt assay.
In order to discover and characterize small molecules which inhibit the wildtype Wnt pathway, a cellular reporter assay was employed. The corresponding assay cell was generated by transfection of the mammalian cell line HEK293 (ATCC, #CRL-1573) with the Super TopFlash vector (Morin, Science 275, 1997, 1787-1790; Molenaar et al., Cell 86 (3), 1996, 391-399). The HEK293 cell line is cultivated at 37° C. and 5% CO2 in DMEM (Life Technologies, #41965-039), supplemented with 2 mM glutamine, 20 mM HEPES, 1.4 mM pyruvate, 0.15% Na-bicarbonate and 10% foetal bovine serum (GIBCO, #10270). Stable transfectants were generated by selection with 300 μg/ml Hygromycin.
(§2) In preparation of the assay, the two cell lines were plated 24 hours before beginning the test at 10000 cells per well in a 384 micro titre plate (MTP) in […] growth medium. […] The recombinant human Wnt-3a was thereby applied between 2500 and 5 ng/ml in two-fold dilution steps. Selective inhibitory activity for small molecules on the wildtype Wnt pathway was determined after parallel incubation of both (TOP and FOP) HEK293 reporter cell lines with a compound dilution series from 50 μM to 15 nM in steps of 3.16-fold dilutions in CAFTY buffer (130 mM NaCl, 5 mM KCl, 20 mM HEPES, 1 mM MgCl2, 5 mM NaHCO3, pH 7.4) containing 2 mM Ca^2+ and 0.01% BSA.
(§3) The compounds were thereby serially prediluted in 100% DMSO and thereafter 50 fold into the CAFTY compound dilution buffer (described above).

[3] = test system: HEK293 FOP control reporter cell line; assay: HEK293 FOP control vector reporter assay; settings: Homo sapiens; HEK293 FOP control reporter cells, EC50 concentration of recombinant Wnt-3a, 16 hours incubation; read-out: HEK FOP IC50
Description: as §1
In a parallel approach, HEK293 cells were cotransfected with the FOP control vector and pcDNA3. The FOP vector is identical to the TOP construct, but it contains instead of functional TCF elements a randomized, non-functional sequence. For this transfection a stable transfected cell line was generated as well, based on selection with Geneticin (1 mg/ml).
as §2, §3

| IC50 ([1]; Homo sapiens, HCT-116, 36 h) [µM] | IC50 [2] [µM] | IC50 (wildtype Wnt pathway) [µM] | IC50 [1] [µM] | SMILES | IC50 [3] [µM] |
| --- | --- | --- | --- | --- | --- |
| 0.487 | ≥ 50 | 0.039 | – | Nc1ccc(-c2ccc(C(=O)Nc3ccc(OC(F)(F)F)c(NC(=O)CN4CCOCC4)c3)cc2)cc1 [Example 76, 4′-amino-N-{3-[(morpholin-4-ylacetyl)amino]-4-(trifluoromethoxy)phenyl}biphenyl-4-carboxamide] | 11 |
| 1.48 | ≥ 50 | 4.1 | – | COC(=O)c1ccc(-c2ccc(C(=O)Nc3ccc(OC)c(NC(=O)CN4CCOCC4)c3)cc2)cc1 [Example 79, methyl 4′-({4-methoxy-3-[(morpholin-4-ylacetyl)amino]phenyl}carbamoyl)biphenyl-4-carboxylate] | ≥ 50 |
| 3.3 | ≥ 50 | 3.8 | – | COc1cccc(-c2ccc(C(=O)Nc3ccc(OC)c(NC(=O)CN4CCOCC4)c3)cc2)c1 [Example 80, 3′-methoxy-N-{4-methoxy-3-[(morpholin-4-ylacetyl)amino]phenyl}biphenyl-4-carboxamide] | ≥ 50 |
| 0.29 | ≥ 50 | 0.32 | – | COc1ccc(NC(=O)c2ccc(-c3cccc(F)c3)cc2)cc1NC(=O)CN1CCOCC1 [Example 81, 3′-fluoro-N-{4-methoxy-3-[(morpholin-4-ylacetyl)amino]phenyl}biphenyl-4-carboxamide] | 9.8 |
| 0.325 | ≥ 50 | 1.7 | – | COc1ccc(NC(=O)c2ccc(-c3ccccc3F)cc2)cc1NC(=O)CN1CCOCC1 [Example 82, 2′-fluoro-N-{4-methoxy-3-[(morpholin-4-ylacetyl)amino]phenyl}biphenyl-4-carboxamide] | ≥ 50 |
| 0.319 | ≥ 50 | 0.76 | – | COc1ccc(NC(=O)c2ccc(-c3ccc(N)cc3)cc2)cc1NC(=O)CN1CCOCC1 [Example 83, 4′-amino-N-{4-methoxy-3-[(morpholin-4-ylacetyl)amino]phenyl}biphenyl-4-carboxamide] | ≥ 50 |
| 0.0997 | ≥ 50 | 0.83 | – | CCOc1ccc(NC(=O)c2ccc(-c3ccccc3)cc2)cc1NC(=O)CN1CCOCC1 [Example 85, N-{4-ethoxy-3-[(morpholin-4-ylacetyl)amino]phenyl}biphenyl-4-carboxamide] | ≥ 50 |
| 0.087 | ≥ 50 | 0.61 | – | COCCOCc1ccc(C(=O)Nc2ccc(-c3ccccc3)cc2)cc1NC(=O)CN1CCOCC1 [Example 86, N-(biphenyl-4-yl)-4-[(2-methoxyethoxy)methyl]-3-[(morpholin-4-ylacetyl)amino]benzamide] | ≥ 50 |
| 0.0448 | ≥ 50 | 0.093 | – | O=C(Nc1ccc(-c2ccccc2)cc1)c1ccc(OCc2ccccc2)c(NC(=O)C2(N3CCOCC3)CC2)c1 [Example 88, 4-(benzyloxy)-N-(biphenyl-4-yl)-3-({[1-(morpholin-4-yl)cyclopropyl]carbonyl}amino)benzamide] | ≥ 50 |
| 0.05 | 27.4 | 0.0206 | – | CC(=O)NCCCOc1ccc(C(=O)Nc2ccc(-c3ccccc3)cc2)cc1NC(=O)C1(N2CCOCC2)CC1 [Example 90, 4-(3-acetamidopropoxy)-N-(biphenyl-4-yl)-3-({[1-(morpholin-4-yl)cyclopropyl]carbonyl}amino)benzamide] | 6.1 |
| 0.0109 | ≥ 50 | 0.00509 | – | O=C(Nc1ccc(-c2ccccc2)cc1)c1ccc(OC(F)(F)F)c(NC(=O)C2(N3CCOCC3)CC2)c1 [Example 94, N-(biphenyl-4-yl)-3-({[1-(morpholin-4-yl)cyclopropyl]carbonyl}amino)-4-(trifluoromethoxy)benzamide] | 7.6 |
| 0.00458 | ≥ 50 | 0.016 | – | COCc1ccc(C(=O)Nc2ccc(-c3ccccc3)cc2)cc1NC(=O)C1(N2CCOCC2)CC1 [Example 95, N-(biphenyl-4-yl)-4-(methoxymethyl)-3-({[1-(morpholin-4-yl)cyclopropyl]carbonyl}amino)benzamide] | ≥ 50 |
| 0.0345 | 8.25 | 0.04 | – | COCc1ccc(C(=O)Nc2ccc(-c3ccccc3)cc2)cc1NC(=O)C1(N2CCN(C)CC2)CC1 [Example 96, N-(biphenyl-4-yl)-4-(methoxymethyl)-3-({[1-(4-methylpiperazin-1-yl)cyclopropyl]carbonyl}amino)benzamide hydrochloride (1:1)] | 9.6 |
| 0.0242 | ≥ 50 | 0.25 | – | O=C(Nc1ccc(-c2ccccc2)cc1)c1ccc(Cl)c(NC(=O)C2(N3CCOCC3)CC2)c1 [Example 97, N-(biphenyl-4-yl)-4-chloro-3-({[1-(morpholin-4-yl)cyclopropyl]carbonyl}amino)benzamide] | ≥ 50 |
| 0.00724 | ≥ 50 | 0.086 | – | O=C(Nc1ccc(-c2ccccc2)cc1)c1ccc(C(F)(F)F)c(NC(=O)C2(N3CCOCC3)CC2)c1 [Example 98, N-(biphenyl-4-yl)-3-({[1-(morpholin-4-yl)cyclopropyl]carbonyl}amino)-4-(trifluoromethyl)benzamide] | ≥ 50 |
| – | 20.8 | 0.09 | 0.0248 | COc1ccc(C(=O)Nc2ccc(-c3ccccc3)cc2)cc1NC(=O)C1(N2CCN(C)CC2)CC1 [Example 100, N-(biphenyl-4-yl)-4-methoxy-3-({[1-(4-methylpiperazin-1-yl)cyclopropyl]carbonyl}amino)benzamide hydrochloride (1:1)] | 19 |
| 0.00521 | ≥ 50 | 0.011 | – | COc1ccc(C(=O)Nc2ccc(-c3ccccc3)cc2)cc1NC(=O)C1(N2CCOCC2)CC1 [Example 101, N-(biphenyl-4-yl)-4-methoxy-3-({[1-(morpholin-4-yl)cyclopropyl]carbonyl}amino)benzamide] | 17 |
| 0.0459 | 28.9 | 0.041 | – | CCNC(=O)c1ccc(C(=O)Nc2ccc(-c3ccccc3)cc2)cc1NC(=O)CN1CCOCC1 [Example 102, N^4-(biphenyl-4-yl)-N^1-ethyl-2-[(morpholin-4-ylacetyl)amino]terephthalamide] | 5.8 |
| 0.0172 | ≥ 50 | 0.076 | – | COCCNC(=O)c1ccc(C(=O)Nc2ccc(-c3ccccc3)cc2)cc1NC(=O)CN1CCOCC1 [Example 106, N^4-(biphenyl-4-yl)-N^1-(2-methoxyethyl)-2-[(morpholin-4-ylacetyl)amino]terephthalamide] | ≥ 50 |
| 0.0385 | 21 | 0.31 | – | O=C(CN1CCOCC1)Nc1cc(C(=O)Nc2ccc(-c3ccccc3)cc2)ccc1C(=O)NC1CC1 [Example 107, N^4-(biphenyl-4-yl)-N^1-cyclopropyl-2-[(morpholin-4-ylacetyl)amino]terephthalamide] | 36 |
| 0.0445 | 43.5 | 0.0156 | – | COCCCNC(=O)c1ccc(C(=O)Nc2ccc(-c3ccccc3)cc2)cc1NC(=O)CN1CCOCC1 [Example 108, N^4-(biphenyl-4-yl)-N^1-(3-methoxypropyl)-2-[(morpholin-4-ylacetyl)amino]terephthalamide] | ≥ 50 |
